Experimental data taken from ChEMBL document CHEMBL5725428, “15-aryl prostaglandins as EP4 agonists, and methods of use thereof” (2017).

Legend:
[1] = target: Prostaglandin E2 receptor EP4 subtype (Homo sapiens, UniProt P35408); experiment: (§1) cAMP Assay: A 384-well drug plate was prepared to contain 6 test compounds, PGE2 and cAMP in 16 serial dilutions in triplicate, using a Biomek station. HEK-EBNA cells expressing a target PG receptor subtype (EP2 or EP4) were suspended in a stimulation buffer (HBSS, 0.1% BSA, 0.5 mM IBMX and 5 mM HEPES, pH 7.4) in a density of 10^4 cells/5 microliters. The reaction was initiated by mixing 5 microliters drug dilutions with 5 microliters of HEK-EBNA cells in a well, carried out for 30 min at room temperature, and followed by the addition of 5 microliters anti-cAMP acceptor beads in the control buffer with Tween-20 (25 mM NaCl, 0.03% Tween-20, 5 mM HEPES, pH 7.4). After 30 min in the dark at room temperature, the mixtures were incubated with 15 microliters biotinylated-cAMP/streptavidin donor beads in Lysis/Detection buffer (0.1% BSA, 0.3% Tween-20 and 5 mM HEPES, pH 7.4) for 45 min at room temperature. Fluorescence changes were read using a Fusion-alpha microplate reader.; assay type: cell-based
[2] = target: Prostaglandin E2 receptor EP2 subtype (Homo sapiens, UniProt P43116); experiment: as §1; assay type: cell-based
Prostaglandin E2 receptor EP2 subtype, sequence (P43116 whole entry): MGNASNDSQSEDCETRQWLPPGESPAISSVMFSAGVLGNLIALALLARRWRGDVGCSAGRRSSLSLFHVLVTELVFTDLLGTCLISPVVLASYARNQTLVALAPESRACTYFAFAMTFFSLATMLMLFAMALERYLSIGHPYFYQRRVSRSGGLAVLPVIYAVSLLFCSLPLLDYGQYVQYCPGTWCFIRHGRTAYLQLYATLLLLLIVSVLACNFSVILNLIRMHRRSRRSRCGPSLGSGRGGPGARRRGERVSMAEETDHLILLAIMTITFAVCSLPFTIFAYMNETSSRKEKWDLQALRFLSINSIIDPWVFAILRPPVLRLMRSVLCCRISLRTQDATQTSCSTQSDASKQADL

Prostaglandin E2 receptor EP4 subtype, sequence (P35408 whole entry): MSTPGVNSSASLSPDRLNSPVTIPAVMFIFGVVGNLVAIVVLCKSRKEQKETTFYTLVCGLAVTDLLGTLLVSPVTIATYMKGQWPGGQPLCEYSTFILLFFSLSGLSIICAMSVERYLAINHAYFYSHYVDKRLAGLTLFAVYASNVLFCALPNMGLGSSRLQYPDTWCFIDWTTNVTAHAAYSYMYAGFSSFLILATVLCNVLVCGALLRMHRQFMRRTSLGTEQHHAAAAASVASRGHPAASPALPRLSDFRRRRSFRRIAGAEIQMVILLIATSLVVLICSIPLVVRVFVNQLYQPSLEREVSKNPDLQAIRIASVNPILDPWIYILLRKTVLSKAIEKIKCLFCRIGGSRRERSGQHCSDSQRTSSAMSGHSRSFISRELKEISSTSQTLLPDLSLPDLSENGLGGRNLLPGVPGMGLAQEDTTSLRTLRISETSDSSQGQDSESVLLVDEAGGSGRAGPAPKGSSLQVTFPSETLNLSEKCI

Ki [1]: 1.08 µM | Ki [2]: 7.49 µM
SMILES: Cc1cc(Cl)ccc1-c1cc(C(O)/C=C/[C@H]2CCC(=O)N2CCCc2ccc(C(=O)O)cc2)ccc1F (single isomer, unassigned)
